# Experimental data published in the supplement of paper PMC10307832.
# What was measured:
# Assay in all cases: relative viability (nuclei count vs DMSO), 5 days (fraction); higher = more cells survive
# [1] = tested on: EBC-1
# In short: (§1)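 Relative viability divides the nuclei count in treated wells by that in vehicle wells. Lung cancer cell lines were seeded in 1536-well plates, dosed by pin tool the next day, and fixed and stained after 5 days in one step with final 0.05% Triton X-100, 1% formaldehyde and 1 ug/ml Hoechst. Dosing was a single drug or a fixed anchor-drug dose plus five library-drug doses (not always all listed) in √10 steps, and values are medians of duplicate plates imaged at 4×.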
# [2] = tested on: NCI-H1734
# In short: as §1
# [3] = tested on: Calu-6
# In short: as §1
# [4] = tested on: NCI-H1650
# In short: as §1
# [5] = tested on: UMC-11
# In short: as §1
# [6] = tested on: NCI-H1299
# In short: as §1
# [7] = tested on: NCI-H1703
# In short: as §1
# [8] = tested on: CAL-12T
# In short: as §1
# [9] = tested on: NCI-H2009
# In short: as §1
# [10] = tested on: A-427
# In short: as §1
# [11] = tested on: IA-LM
# In short: as §1
smiles,measurement,setting,value
Nc1ccn([C@@H]2O[C@H](CO)[C@@H](O)[C@@H]2O)c(=O)n1 [Cytarabine] + CC(C)C[C@H](NC(=O)[C@H](Cc1ccccc1)NC(=O)c1cnccn1)B(O)O [Bortezomib] (partner 0.002 µM),relative viability,[1]; first compound 0.005 µM,0.543
same,relative viability,[1]; first compound 0.01581 µM,0.49
same,relative viability,[1]; first compound 0.05 µM,0.515
same,relative viability,[1]; first compound 0.1581 µM,0.341
same,relative viability,[1]; first compound 0.5 µM,0.326
same,relative viability,[2]; first compound 0.005 µM,0.515
same,relative viability,[2]; first compound 0.01581 µM,0.377
same,relative viability,[2]; first compound 0.05 µM,0.347
same,relative viability,[2]; first compound 0.1581 µM,0.149
same,relative viability,[2]; first compound 0.5 µM,0.159
same,relative viability,[3]; first compound 0.005 µM,0.864
same,relative viability,[3]; first compound 0.01581 µM,0.794
same,relative viability,[3]; first compound 0.05 µM,0.749
same,relative viability,[3]; first compound 0.1581 µM,0.609
same,relative viability,[3]; first compound 0.5 µM,0.356
same,relative viability,[4]; first compound 0.005 µM,0.215
same,relative viability,[4]; first compound 0.01581 µM,0.166
same,relative viability,[4]; first compound 0.05 µM,0.172
same,relative viability,[4]; first compound 0.1581 µM,0.161
same,relative viability,[4]; first compound 0.5 µM,0.154
same,relative viability,[5]; first compound 0.005 µM,0.339
same,relative viability,[5]; first compound 0.01581 µM,0.381
same,relative viability,[5]; first compound 0.05 µM,0.341
same,relative viability,[5]; first compound 0.1581 µM,0.155
same,relative viability,[5]; first compound 0.5 µM,0.155
same,relative viability,[6]; first compound 0.005 µM,1.01
same,relative viability,[6]; first compound 0.01581 µM,1.09
same,relative viability,[6]; first compound 0.05 µM,1.05
same,relative viability,[6]; first compound 0.1581 µM,1.03
same,relative viability,[6]; first compound 0.5 µM,1
same,relative viability,[7]; first compound 0.005 µM,0.321
same,relative viability,[7]; first compound 0.01581 µM,0.172
same,relative viability,[7]; first compound 0.05 µM,0.145
same,relative viability,[7]; first compound 0.1581 µM,0.117
same,relative viability,[7]; first compound 0.5 µM,0.134
same,relative viability,[8]; first compound 0.005 µM,0.933
same,relative viability,[8]; first compound 0.01581 µM,0.715
same,relative viability,[8]; first compound 0.05 µM,0.948
same,relative viability,[8]; first compound 0.1581 µM,0.379
same,relative viability,[8]; first compound 0.5 µM,0.267
same,relative viability,[9]; first compound 0.005 µM,1.05
same,relative viability,[9]; first compound 0.01581 µM,1.03
same,relative viability,[9]; first compound 0.05 µM,0.952
same,relative viability,[9]; first compound 0.1581 µM,0.634
same,relative viability,[9]; first compound 0.5 µM,0.311
same,relative viability,[10]; first compound 0.005 µM,0.752
same,relative viability,[10]; first compound 0.01581 µM,0.46
same,relative viability,[10]; first compound 0.05 µM,0.276
same,relative viability,[10]; first compound 0.1581 µM,0.171
same,relative viability,[10]; first compound 0.5 µM,0.166
same,relative viability,[11]; first compound 0.005 µM,0.739
same,relative viability,[11]; first compound 0.01581 µM,0.663
same,relative viability,[11]; first compound 0.05 µM,0.648
same,relative viability,[11]; first compound 0.1581 µM,0.411
same,relative viability,[11]; first compound 0.5 µM,0.165
